Data published in patent US20210047278A1, “E3 UBIQUITIN LIGASE AGONISTS, PHARMACEUTICAL COMPOSITIONS INCLUDING THE E3 UBIQUITIN LIGASE AGONISTS, RELATED METHODS OF USE” (FRED HUTCHINSON CANCER RESEARCH CENTER, priority 2018, published 2021).
Where two headings read alike, the source gives them in different places.

Columns and labels:
Assay type in all cases: binding
FBW7^ARG (RLFBW7) alone = target: T1, FBW7^ARG (RLFBW7) alone (Homo sapiens, UniProt Q969H0, R505L); test: Counterscreen 1 ALPHAscreen with FBW7^ARG alone (CSRUN1/DCSRUN1); conditions: dose-response counterscreen; for Emax: read-out: RLFBW7 ACT DCSRUN1 Averaged Max % Response
T1 construct: GST (TEV site and flexible linker) (N, cleaved yes); made in house; host or cells: SF9 insect cells (baculovirus)
Method: (§1) Studies in 384-well format were performed using the ENVISION system. Reagent concentrations (see FIG. 6A), order of addition, pH (see FIG. 6B), and reducing agent were altered with the goal of enhancing the dynamic range between wt-FBW7 (the positive control) and FBW7^ARG (FIG. 6 and not shown). Wt-FBW7 produced a signal 100× greater with phosphorylated cyclin E degron peptide compared with unphosphorylated, which represents the assay's maximum range (FIG. 6C). […] This assay thus detects the residual affinity of the FBW7^ARG-substrate interaction, which, as predicted, is stronger than wt-FBW7 protein with unphosphorylated cyclin E peptide. Concurrent with this primary assay, counter ALPHAscreens were developed which omitted either FBW7 or peptide (to eliminate hits that are general ALPHAscreen agonists), or used an irrelevant phosphopeptide (to eliminate compounds that simply augment binding to phosphopeptides). […]
(§2) The 77 hits were subjected to a dose-response assay in which each compound was tested in triplicate in a 10 point 3-fold dilutional series, to a maximum concentration of approximately 87 μM. Three screens were performed, using FBW7^ARG+pCycE (DRUN), FBW7^ARG (DCSRUN1), or pCycE alone (DCSRUN2). See TABLES 2, 3, and 4, respectively, and FIG. 10A. All of the assays performed extremely well, and threshold of 10% activation (relative to WT-FBW7+pCycE) was set as positive. […] Many hits fell into shared structure cluster ID groups, reinforcing the idea that they function as specific agonists (see below and TABLE 5).

pCycE alone = test: Counterscreen 2 ALPHAscreen with cyclin E phosphopeptide alone (CSRUN2/DCSRUN2); conditions: for CyCEP ACT DCSRUN2 Averaged Max % Response: activation relative to WT-FBW7+pCycE, averaged maximum; for EC50: dose-response, triplicate, 10 point 3-fold dilutional series, read-out: CyCEP ACT DCSRUN2 Final EC50
Method: as §1, §2

FBW7^ARG+pCycE = target: T2, FBW7^ARG+pCycE (Homo sapiens, UniProt Q969H0, R505L); test: FBW7^ARG-cyclin E agonist ALPHAscreen (primary PRUN, confirmation CRUN1, dose-response DRUN); conditions: for EC50 / Emax: DRUN dose-response; for Emax: relative to WT-FBW7+pCycE, read-out: FBW7 ACT Averaged Max % Response
T2 construct: GST (TEV site and flexible linker) (N, cleaved yes); made in house; host or cells: SF9 insect cells (baculovirus)
Excerpt: FBW7^ARG refers to a class of loss-of-function mutations of the of FBW7 ubiquitin ligase that target a key phosphate-binding arginine residue in the FBW7 substrate-binding domain. These mutations are commonly found in human cancers and promote tumorigenesis by impairing the interactions between FBW7 and its substrates, such as cyclin E and Myc. Described herein is a high throughput screen (HTS) to identify agonists, such as small molecules, that augment FBW7^ARG-substrate binding. In an embodiment, the HTS is based on the Amplified Luminescent Proximity Homogenous Assay (ALPHAscreen) because it detects protein-protein interactions with a large dynamic range. ALPHAscreen is a bead-based proximity assay wherein donor beads contain a photosensitizer, phthalocyanine, and acceptor beads contain thioxene, anthracene and rubrenein in sufficient quantities to generate a chemiluminescence/fluorescence reaction (FIG. 4A). Upon excitation with excitation illumination, such as light having a wavelength of 680 nm, of the donor beads, phthalocyanine converts ambient oxygen to singlet oxygen, which can diffuse approximately 200 nm within its 4-microsecond half-life. If an acceptor bead is in close proximity to an excited donor bead, singlet oxygen transfers its energy to the acceptor, resulting in emitted light at a broad bandwidth of −520-620 nm. The HTS-compatible FBW7/cyclin E ALPHAscreen assay described herein uses streptavidin coupled donor beads and Ni-chelate acceptor beads. In this assay, biotinylated cyclin E phosphopeptide and the His-tagged FBW7 mutant protein have high affinity for the donor and acceptor beads, respectively (FIG. 4B). A small molecule that is able to bridge the binding sites of the peptide and the mutant protein (or induce a conformational change that increases affinity of the protein for the peptide) will bring the donor and acceptor beads in close proximity to each other, resulting in an ALPHA signal. As designed, this assay format is a very sensitive, non-radioactive, homogenous “mix-and-read” format that is HT compatible in 384 and 1536 well formats.
In the 384-well screening assay, 10 uL of acceptor beads with 25 nM of the FBW7^ARG (RLFBW7) are dispensed to test wells; acceptor beads with 25 nM of the wt-FBW7 protein (WTFBW7) are dispensed to control wells. Test compounds are then added by pintool transfer and the mixture is incubated for 30 minutes. An additional 10 uL of donor beads with 25 nM cyclin E phosphopeptide is then added to all wells and the plate is incubated for 4 hours before the ALPHA signal is measured.
In preparation for large-scale screening, the assay was miniaturized to a 1536-well format. The miniaturized screen performed outstandingly in all respects. The screen was enhanced with respect to several parameters and assayed its performance using mutant FBW7 and wt-FBW7, as well as non-specific assay agonists. […] For example, the following Z′-scores/FBW7 concentrations were obtained: 6.25 nM/Z′=0.62, 12.5 nm/Z′=0.85, 25.0 nM/Z′=0.84.
1. Add 2.5 uL of RLFBW7/cycE˜P/Ni beads: Final [25 nM/25 nM/10 ug/ml].
2. Add 2.5 uL of WTFBW7/cycE˜P/Ni beads: Final [25 nM/25 nM/10 ug/ml].
4. Add 2.5 uL of SA beads to all wells Final [10 ug/ml],
5. Add 30 nL of compounds,
6. Read ALPHAscreen on Envision
The large-scale FBW7 agonist ALPHAscreen was completed using FBW7^ARG and a phosphorylated cyclin E (pCycE) degron peptide. Wt-FBW7+pCycE-peptide was the “high control”, and Wt-FBW7+unphosph. CycE peptide was the “low control”. The screen was performed on the 645,000-compound Scripps Diversity Library using 1536-well format and drug concentrations of 26.1 μM. An algorithm aided hit identification based on the average percent activation for all compounds and their standard deviation.
A confirmation assay of all 853 compounds in triplicate using a single concentration (26.1 μM). […]

[1] = raw curve fit, read-out: RLFBW7 ACT DCSRUN1 EC50 Curve Fit Raw
[2] = read-out: RLFBW7 ACT DCSRUN1 Final EC50
[3] = raw curve fit, read-out: FBW7 ACT EC50 Curve Fit Raw, Molar
[4] = triplicate, 10 point 3-fold dilution, max approx. 87 μM, read-out: FBW7 ACT Final EC50, Molar
[5] = confirmation assay, triplicate, single concentration 26.1 μM, read-out: FBW7 ACT CRUN1 Avg % Response and Stdev
[6] = primary screen, 1536-well, 26.1 μM, FBW7^ARG + pCycE degron peptide, high control wt-FBW7+pCycE, read-out: FBW7 ACT PRUN % Response

T1 sequence (Q969H0 64-707 R505L): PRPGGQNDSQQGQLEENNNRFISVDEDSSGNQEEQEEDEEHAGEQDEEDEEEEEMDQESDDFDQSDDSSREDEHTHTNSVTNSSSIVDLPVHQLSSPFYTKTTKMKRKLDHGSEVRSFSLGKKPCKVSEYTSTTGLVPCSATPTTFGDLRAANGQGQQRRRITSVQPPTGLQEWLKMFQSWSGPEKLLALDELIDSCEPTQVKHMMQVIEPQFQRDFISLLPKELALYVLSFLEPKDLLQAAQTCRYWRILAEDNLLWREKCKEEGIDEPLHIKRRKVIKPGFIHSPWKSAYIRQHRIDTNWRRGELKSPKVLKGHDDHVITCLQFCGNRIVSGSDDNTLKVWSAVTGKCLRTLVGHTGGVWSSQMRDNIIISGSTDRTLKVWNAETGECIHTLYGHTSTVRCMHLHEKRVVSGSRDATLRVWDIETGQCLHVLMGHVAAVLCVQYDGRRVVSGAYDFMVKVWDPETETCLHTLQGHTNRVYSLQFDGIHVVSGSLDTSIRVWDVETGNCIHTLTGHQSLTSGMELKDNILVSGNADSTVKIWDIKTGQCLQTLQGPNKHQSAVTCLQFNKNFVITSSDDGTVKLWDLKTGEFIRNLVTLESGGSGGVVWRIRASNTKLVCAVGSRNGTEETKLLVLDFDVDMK
T1 sequence (P63208 2-163 partner): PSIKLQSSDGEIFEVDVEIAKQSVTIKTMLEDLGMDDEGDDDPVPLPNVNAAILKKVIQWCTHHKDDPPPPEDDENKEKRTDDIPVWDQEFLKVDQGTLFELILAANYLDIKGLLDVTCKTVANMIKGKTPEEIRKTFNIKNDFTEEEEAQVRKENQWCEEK
T2 sequence (Q969H0 64-707 R505L): as the sequence (Q969H0 64-707 R505L) above
T2 sequence (P63208 2-163 partner): as the sequence (P63208 2-163 partner) above

| EC50 (FBW7^ARG (RLFBW7) alone; [1]) [µM] | Emax (FBW7^ARG (RLFBW7) alone) [%] | EC50 (FBW7^ARG (RLFBW7) alone; [2]) [µM] | EC50 (FBW7^ARG+pCycE; [3]) [µM] | Emax (FBW7^ARG+pCycE) [%] | EC50 (FBW7^ARG+pCycE; [4]) [µM] | activation at 26.1 µM (FBW7^ARG+pCycE; [5]) [%] | activation at 26.1 µM (FBW7^ARG+pCycE; [6]) [%] | SMILES | CyCEP ACT DCSRUN2 Averaged Max % Response (pCycE alone) [%] | EC50 (pCycE alone) [µM] |
| --- | --- | --- | --- | --- | --- | --- | --- | --- | --- | --- |
| 19 | 5.19 | > 65.3 | 21.9 | 10.7 | > 65.3 | 2.9 ± 0.27 | 2.13 | CCCOc1ccc(C2C(C(=O)OC)=CN(CCOC)C=C2C(=O)OC)cc1 [SR-01000259436-1] | 0.31 | > 65.3 |
| 11.6 | 6.67 | > 65.3 | 8.2 | 13.9 | > 65.3 | 5.16 ± 7.04 | 3.44 | CCN(CC)c1ccc2cc(-c3nc(C)cs3)c(=O)oc2c1 [SR-01000312020-1] | 0.77 | > 65.3 |
|  | 0.25 | > 65.3 | 26.4 | 22.7 | > 65.3 | 4.06 ± 0.07 | 3.64 | COc1cccc(/C=N/c2cnn(C)c2C(N)=O)c1O [SR-01000314216-1] | 0.18 | > 65.3 |
| 75.4 | 6.24 | > 65.3 | 31.4 | 13.7 | > 65.3 | 2.14 ± 0.69 | 3.43 | CCN(CC)c1ccc2c(c1)OC(N)=C(C#N)C2c1ccccc1 (stereo not drawn) [SR-01000320053-1] | 0.22 | > 65.3 |
| 6.3 | 0.2 | > 65.3 | 19.1 | 18 | > 65.3 | 4.43 ± 0.25 | 4.09 | COc1ccccc1-c1ccc(=O)n(CC(=O)Nc2ccc(C(=O)N3CCCC3)cc2)n1 [SR-01000332536-1] | 0.12 | > 65.3 |
| 2.3 | 0.87 | > 65.3 | 24 | 6.45 | > 65.3 | 2.97 ± 0.23 | 2.16 | CCC(c1nnnn1CCC(C)C)N1CCN(C(=O)c2ccco2)CC1 (stereo not drawn) [SR-01000340422-1] | 0.18 | > 65.3 |
| 16.2 | 35.6 | > 65.3 | 14.9 | 10.7 | > 65.3 | 3.87 ± 0.19 | 3.77 | Cc1ccc2nc(SCC(=O)Nc3ncc(C)s3)c(C#N)cc2c1 [SR-01000340506-1] | 0.24 | > 65.3 |
| 47.6 | 0.67 | > 65.3 | 18 | 22.9 | > 65.3 | 7.92 ± 0.35 | 2.77 | CCSc1nnc(C2CCN(CC(=O)Nc3cccc4ccccc34)CC2)n1C [SR-01000349710-1] | 0.22 | > 65.3 |
| 11.9 | 2.7 | > 65.3 | 0.009 | 6.4 | > 65.3 | 2.54 ± 0.42 | 1.95 | O=c1c2cnn(-c3ccccc3)c2nnn1Cc1cccnc1 [SR-01000355082-1] | 0.12 | > 65.3 |
| 23.7 | 0.39 | > 65.3 | 21.1 | 15.2 | > 65.3 | 2.38 ± 0.5 | 6.3 | COc1cccc(/C=N/c2ccc3[nH]ncc3c2)c1O [SR-01000359514-1] | 0.13 | > 65.3 |
| 13.9 | -0.189 | > 65.3 | 12.7 | 6.99 | > 65.3 | 2.06 ± 0.33 | 2.3 | CC(C)c1ccc(Nc2nccn3c(-c4ccoc4)cnc23)cc1 [SR-01000376943-1] | 1.39 | > 65.3 |
| 0.011 | 1.12 | > 65.3 | 0.0903 | 6.66 | > 65.3 | 3.47 ± 0.47 | 2.82 | CC(NC(=O)c1cnc2ccccn12)c1ccc(F)cc1 (stereo not drawn) [SR-01000378746-1] | 0.23 | > 65.3 |
| 0.229 | 0.83 | > 65.3 | 20.3 | 18.1 | > 65.3 | 1.92 ± 0.3 | 6.66 | O=C(c1ccco1)N1CCN(c2ncc(-c3ccccc3CO)n3ccnc23)CC1 [SR-01000381408-1] | 0.18 | > 65.3 |
|  | 0.49 | > 65.3 | 0.127 | 6.14 | > 65.3 | 2.27 ± 0.17 | 2.03 | CC(C)[C@@H](CO)Nc1ccc2ncc(-c3cccc(Cl)c3)n2n1 [SR-01000383396-1] | 0.27 | > 65.3 |
|  | -0.422 | > 59.3 | 0.0017 | 7.11 | > 59.3 | 2.95 ± 3.6 | 1.88 | COc1ccc(OC)c(/C=C2/N=C(c3cccc([N+](=O)[O-])c3)OC2=O)c1 [SR-01000414795-1] | 0.02 | > 59.3 |
